In the experiment the test system is Ctenocephalides felis. As to the kind of experiment: Insecticidal activity against Ctenocephalides felis by anti-flea artificial membrane feeding system. Type of experiment: functional.

The compound `CC(C)CC(=O)O[C@H]1/C=C/C=C/C(=O)O[C@H]2CC[C@@H]3[C@]2(O)[C@H](O)[C@@]2(CO)O[C@H]2[C@H]2[C@H]4OC5(c6ccccc6)O[C@@H]([C@@H](C)[C@@]23O5)[C@@]4(O)[C@](C)(O)C[C@H]2CC[C@H]1[C@H]2C` [REDIOCIDE E] displayed an LD90 of 0.5 ppm.

With `C[C@@H]1[C@@H]2OC3(c4ccccc4)O[C@@H]4[C@@H]5[C@@H]6O[C@]6(C)[C@@H](O)[C@@]6(O)[C@@H](C[C@H](C)[C@@H]6OC(=O)/C=C/[C@@H]6O[C@H]6[C@H](OC(=O)c6ccccc6)C6CCC(CC6)C[C@@](C)(O)[C@@]42O)[C@]51O3` [REDIOCIDE D], the LD90 is 0.25 ppm.

`CC(C)CC(=O)O[C@H]1/C=C/C=C/C(=O)O[C@H]2[C@@H](C)C[C@@H]3[C@]2(O)[C@H](O)[C@@]2(CO)O[C@H]2[C@H]2[C@H]4OC5(c6ccccc6)O[C@@H]([C@@H](C)[C@@]23O5)[C@@]4(O)[C@](C)(O)CC2CCC1CC2` [REDIOCIDE B] showed an LD90 of 0.25 ppm.

On to `C[C@H]1[C@@H]2CC[C@@H]1[C@@H](OC(=O)c1ccccc1)/C=C/C=C/C(=O)O[C@H]1[C@@H](C)C[C@@H]3[C@]1(O)[C@H](O)[C@@]1(CO)O[C@H]1[C@H]1[C@H]4OC5(c6ccccc6)O[C@@H]([C@@H](C)[C@@]13O5)[C@@]4(O)[C@](C)(O)C2` [REDIOCIDE C], for which the LD90 stood at 0.5 ppm.

Turning to `CC(C)CC(=O)O[C@H]1/C=C/C=C/C(=O)O[C@H]2[C@@H](C)C[C@@H]3[C@]2(O)[C@H](O)[C@@]2(CO)O[C@H]2[C@H]2[C@H]4OC5(c6ccccc6)O[C@@H]([C@@H](C)[C@@]23O5)[C@@]4(O)[C@](C)(O)C[C@H]2CC[C@H]1[C@H]2C` [REDIOCIDE A], the LD90 was determined as 0.25 ppm.

For the origin of these results see ChEMBL document CHEMBL1146481, “Rediocides B-E, potent insecticides from Trigonostemon reidioides” (2004).
